# ± gives the standard deviation of the averaged measurements.
# Legend:
# [1] = compound: T1, C=CC(=O)Nc1cc2c(Nc3ccc(F)c(Cl)c3)ncnc2cc1OCCCN1CCOCC1 [CANERTINIB]; assay: surviving fraction relative to DMSO-only wells; higher = less growth inhibition; conditions: exposure time: 5 days
# In short: (§1)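 Each tumour cell line was screened three times, and only lines with replicate Pearson r >0.7 and median Z' >0.3 were kept. Cells in log phase were seeded at 250–500 per well in 384-well plates, left 24 hours, then exposed continuously for five days to inhibitors at 0.5, 1, 5, 10, 50, 100, 500 and 1000 nM. Viability was read as CellTiter-Glo luminescence, with surviving fraction normalised to the median of DMSO-only wells.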
# [2] = compound: T2, CC1(C)CC(=O)c2c(C(F)(F)F)nn(-c3ccc(C(N)=O)c(N[C@H]4CC[C@H](OC(=O)CN)CC4)c3)c2C1 [SNX-5422]; assay: as above; conditions: exposure time: 5 days
# In short: as §1
# [3] = compound: T3, CCCCCCCCCCCCCCCC(=O)Nc1ccn([C@@H]2O[C@H](CO)[C@@H](O)[C@@H]2C#N)c(=O)n1 [SAPACITABINE]; assay: as above; conditions: exposure time: 5 days
# In short: as §1
# [4] = compound: T4, CC[C@@H]1C(=O)N(C)c2cnc(Nc3ccc(C(=O)NC4CCN(C)CC4)cc3OC)nc2N1C1CCCC1 [BI-2536]; assay: as above; conditions: exposure time: 5 days
# In short: as §1
# [5] = compound: T5, CN(C)C/C=C/C(=O)Nc1cc2c(Nc3ccc(F)c(Cl)c3)ncnc2cc1O[C@H]1CCOC1 [AFATINIB]; assay: as above; conditions: exposure time: 5 days
# In short: as §1
# [6] = compound: T6, CNC(=O)c1ccc(N2C(=S)N(c3ccc(C#N)c(C(F)(F)F)c3)C(=O)C2(C)C)cc1F [MDV3100]; assay: as above; conditions: exposure time: 5 days
# In short: as §1
# [7] = compound: Cn1cc(C2=Nc3cc(NC(=O)C(N)C4CCCCC4)cc4c3C2=CNNC4=O)cn1; assay: as above; conditions: exposure time: 5 days
# In short: as §1
# [8] = compound: T7, Nc1nc2[nH]cnc2c(=S)[nH]1 [TIOGUANINE]; assay: as above; conditions: exposure time: 5 days
# In short: as §1
# [9] = compound: T1, CANERTINIB; assay: area under dose-response curve of surviving fraction (unscaled, Aref=0) (surviving fraction x log10(nM)); higher = more resistant; conditions: exposure time: 5 days; dose range 0.5-1000 nM
# In short: (§2)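 Inhibitor was applied to tumour cell lines at eight concentrations (0.5 to 1000 nM) for five days in 384-well plates. Luminescence from CellTiter-Glo, scaled to DMSO-only wells, gave surviving fractions in three screens per line, and these were fitted by 3-parameter logistic regression with the drc R package. The area under the curve is an unscaled activity area. Aref was 0, and dose was on a log10 scale.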
# [10] = compound: T2, SNX-5422; assay: as above; conditions: exposure time: 5 days; dose range 0.5-1000 nM
# In short: as §2
# [11] = compound: T3, SAPACITABINE; assay: as above; conditions: exposure time: 5 days; dose range 0.5-1000 nM
# In short: as §2
# [12] = compound: T4, BI-2536; assay: as above; conditions: exposure time: 5 days; dose range 0.5-1000 nM
# In short: as §2
# [13] = compound: T5, AFATINIB; assay: as above; conditions: exposure time: 5 days; dose range 0.5-1000 nM
# In short: as §2
# [14] = compound: T6, MDV3100; assay: as above; conditions: exposure time: 5 days; dose range 0.5-1000 nM
# In short: as §2
# [15] = compound: Cn1cc(C2=Nc3cc(NC(=O)C(N)C4CCCCC4)cc4c3C2=CNNC4=O)cn1; assay: as above; conditions: exposure time: 5 days; dose range 0.5-1000 nM
# In short: as §2
# [16] = compound: T7, TIOGUANINE; assay: as above; conditions: exposure time: 5 days; dose range 0.5-1000 nM
# In short: as §2
test system,measurement,setting,value
U2OS BONE,surviving fraction,[1]; 0.5 nM,0.951 ± 0.022
same,surviving fraction,[1]; 1 nM,0.95 ± 0.041
same,surviving fraction,[1]; 5 nM,0.942 ± 0.025
same,surviving fraction,[1]; 10 nM,0.962 ± 0.047
same,surviving fraction,[1]; 50 nM,0.991 ± 0.0096
same,surviving fraction,[1]; 100 nM,0.991 ± 0.029
same,surviving fraction,[1]; 500 nM,0.877 ± 0.017
same,surviving fraction,[1]; 1000 nM,0.889 ± 0.059
same,surviving fraction,[2]; 0.5 nM,1.04 ± 0.019
same,surviving fraction,[2]; 1 nM,1.06 ± 0.04
same,surviving fraction,[2]; 5 nM,1.08 ± 0.015
same,surviving fraction,[2]; 10 nM,1.06 ± 0.041
same,surviving fraction,[2]; 50 nM,0.644 ± 0.018
same,surviving fraction,[2]; 100 nM,0.257 ± 0.021
same,surviving fraction,[2]; 500 nM,0.066 ± 0.0035
same,surviving fraction,[2]; 1000 nM,0.0757 ± 0.0023
same,surviving fraction,[3]; 0.5 nM,0.921 ± 0.066
same,surviving fraction,[3]; 1 nM,0.938 ± 0.06
same,surviving fraction,[3]; 5 nM,0.946 ± 0.035
same,surviving fraction,[3]; 10 nM,0.936 ± 0.067
same,surviving fraction,[3]; 50 nM,0.939 ± 0.016
same,surviving fraction,[3]; 100 nM,0.83 ± 0.036
same,surviving fraction,[3]; 500 nM,0.729 ± 0.019
same,surviving fraction,[3]; 1000 nM,0.66 ± 0.032
same,surviving fraction,[4]; 0.5 nM,1.04 ± 0.027
same,surviving fraction,[4]; 1 nM,1.05 ± 0.063
same,surviving fraction,[4]; 5 nM,0.902 ± 0.023
same,surviving fraction,[4]; 10 nM,0.302 ± 0.023
same,surviving fraction,[4]; 50 nM,0.215 ± 0.0062
same,surviving fraction,[4]; 100 nM,0.199 ± 0.01
same,surviving fraction,[4]; 500 nM,0.188 ± 0.0087
same,surviving fraction,[4]; 1000 nM,0.171 ± 0.013
same,surviving fraction,[5]; 0.5 nM,1.075 ± 0.001
same,surviving fraction,[5]; 1 nM,1.05 ± 0.044
same,surviving fraction,[5]; 5 nM,1.06 ± 0.013
same,surviving fraction,[5]; 10 nM,1.02 ± 0.024
same,surviving fraction,[5]; 50 nM,1.05 ± 0.0055
same,surviving fraction,[5]; 100 nM,1.04 ± 0.056
same,surviving fraction,[5]; 500 nM,0.838 ± 0.021
same,surviving fraction,[5]; 1000 nM,0.646 ± 0.0085
same,surviving fraction,[6]; 0.5 nM,1.003 ± 0.0095
same,surviving fraction,[6]; 1 nM,1.02 ± 0.022
same,surviving fraction,[6]; 5 nM,1.01 ± 0.027
same,surviving fraction,[6]; 10 nM,1.01 ± 0.018
same,surviving fraction,[6]; 50 nM,1.04 ± 0.026
same,surviving fraction,[6]; 100 nM,1.03 ± 0.018
same,surviving fraction,[6]; 500 nM,1.06 ± 0.033
same,surviving fraction,[6]; 1000 nM,0.999 ± 0.047
same,surviving fraction,[7]; 0.5 nM,1.06 ± 0.016
same,surviving fraction,[7]; 1 nM,1.08 ± 0.029
same,surviving fraction,[7]; 5 nM,1.1 ± 0.045
same,surviving fraction,[7]; 10 nM,1.08 ± 0.04
same,surviving fraction,[7]; 50 nM,1.04 ± 0.029
same,surviving fraction,[7]; 100 nM,0.999 ± 0.029
same,surviving fraction,[7]; 500 nM,0.201 ± 0.017
same,surviving fraction,[7]; 1000 nM,0.0873 ± 0.0068
same,surviving fraction,[8]; 0.5 nM,1.03 ± 0.058
same,surviving fraction,[8]; 1 nM,1.06 ± 0.043
same,surviving fraction,[8]; 5 nM,1.077 ± 0.007
same,surviving fraction,[8]; 10 nM,1.04 ± 0.018
same,surviving fraction,[8]; 50 nM,1.08 ± 0.05
same,surviving fraction,[8]; 100 nM,1.06 ± 0.048
same,surviving fraction,[8]; 500 nM,0.939 ± 0.014
same,surviving fraction,[8]; 1000 nM,0.732 ± 0.042
same,area under dose-response curve,[9],3.13
same,area under dose-response curve,[10],2.17
same,area under dose-response curve,[11],2.92
same,area under dose-response curve,[12],1.57
same,area under dose-response curve,[13],3.19
same,area under dose-response curve,[14],3.37
same,area under dose-response curve,[15],2.85
same,area under dose-response curve,[16],3.25
MDAMB361 BREAST,surviving fraction,[1]; 0.5 nM,0.704 ± 0.05
same,surviving fraction,[1]; 1 nM,0.718 ± 0.16
same,surviving fraction,[1]; 5 nM,0.642 ± 0.011
same,surviving fraction,[1]; 10 nM,0.674 ± 0.078
same,surviving fraction,[1]; 50 nM,0.74 ± 0.064
same,surviving fraction,[1]; 100 nM,0.832 ± 0.092
same,surviving fraction,[1]; 500 nM,0.691 ± 0.067
same,surviving fraction,[1]; 1000 nM,0.682 ± 0.053
same,surviving fraction,[2]; 0.5 nM,0.884 ± 0.064
same,surviving fraction,[2]; 1 nM,0.974 ± 0.14
same,surviving fraction,[2]; 5 nM,0.76 ± 0.043
same,surviving fraction,[2]; 10 nM,0.816 ± 0.037
same,surviving fraction,[2]; 50 nM,0.443 ± 0.025
same,surviving fraction,[2]; 100 nM,0.879 ± 0.2
same,surviving fraction,[2]; 500 nM,0.307 ± 0.0076
same,surviving fraction,[2]; 1000 nM,0.294 ± 0.015
same,surviving fraction,[3]; 0.5 nM,0.711 ± 0.096
same,surviving fraction,[3]; 1 nM,0.624 ± 0.029
same,surviving fraction,[3]; 5 nM,0.662 ± 0.06
same,surviving fraction,[3]; 10 nM,0.648 ± 0.069
same,surviving fraction,[3]; 50 nM,0.868 ± 0.097
same,surviving fraction,[3]; 100 nM,0.771 ± 0.1
same,surviving fraction,[3]; 500 nM,0.908 ± 0.093
same,surviving fraction,[3]; 1000 nM,0.872 ± 0.041
same,surviving fraction,[4]; 0.5 nM,0.674 ± 0.046
same,surviving fraction,[4]; 1 nM,0.617 ± 0.026
same,surviving fraction,[4]; 5 nM,0.578 ± 0.051
same,surviving fraction,[4]; 10 nM,0.637 ± 0.0066
same,surviving fraction,[4]; 50 nM,0.565 ± 0.026
same,surviving fraction,[4]; 100 nM,0.517 ± 0.013
same,surviving fraction,[4]; 500 nM,0.245 ± 0.0072
same,surviving fraction,[4]; 1000 nM,0.21 ± 0.028
same,surviving fraction,[5]; 0.5 nM,0.932 ± 0.059
same,surviving fraction,[5]; 1 nM,0.796 ± 0.034
same,surviving fraction,[5]; 5 nM,0.81 ± 0.041
same,surviving fraction,[5]; 10 nM,0.799 ± 0.06
same,surviving fraction,[5]; 50 nM,0.682 ± 0.088
same,surviving fraction,[5]; 100 nM,0.629 ± 0.04
same,surviving fraction,[5]; 500 nM,0.535 ± 0.02
same,surviving fraction,[5]; 1000 nM,0.459 ± 0.027
same,surviving fraction,[6]; 0.5 nM,0.907 ± 0.073
same,surviving fraction,[6]; 1 nM,0.81 ± 0.075
same,surviving fraction,[6]; 5 nM,0.935 ± 0.068
same,surviving fraction,[6]; 10 nM,0.874 ± 0.074
same,surviving fraction,[6]; 50 nM,0.831 ± 0.14
same,surviving fraction,[6]; 100 nM,0.806 ± 0.074
same,surviving fraction,[6]; 500 nM,0.921 ± 0.085
same,surviving fraction,[6]; 1000 nM,0.831 ± 0.077
same,surviving fraction,[7]; 0.5 nM,0.751 ± 0.014
same,surviving fraction,[7]; 1 nM,0.706 ± 0.065
same,surviving fraction,[7]; 5 nM,0.71 ± 0.023
same,surviving fraction,[7]; 10 nM,0.656 ± 0.061
same,surviving fraction,[7]; 50 nM,0.456 ± 0.028
same,surviving fraction,[7]; 100 nM,0.399 ± 0.032
same,surviving fraction,[7]; 500 nM,0.43 ± 0.013
same,surviving fraction,[7]; 1000 nM,0.49 ± 0.013
same,surviving fraction,[8]; 0.5 nM,0.914 ± 0.011
same,surviving fraction,[8]; 1 nM,0.845 ± 0.011
same,surviving fraction,[8]; 5 nM,0.881 ± 0.0085
same,surviving fraction,[8]; 10 nM,0.884 ± 0.062
same,surviving fraction,[8]; 50 nM,0.846 ± 0.018
same,surviving fraction,[8]; 100 nM,0.955 ± 0.054
same,surviving fraction,[8]; 500 nM,0.882 ± 0.067
same,surviving fraction,[8]; 1000 nM,0.963 ± 0.043
same,area under dose-response curve,[9],2.35
same,area under dose-response curve,[10],2.27
same,area under dose-response curve,[11],2.49
same,area under dose-response curve,[12],1.68
same,area under dose-response curve,[13],2.35
same,area under dose-response curve,[14],2.85
same,area under dose-response curve,[15],1.88
same,area under dose-response curve,[16],2.95
